According to patent US20060078875A1, “Genetic selection of small molecule modulators of protein-protein interactions” (The Penn State Research Foundation, priority 2004, published 2006):
One block for each molecule: values may come before it. Peptide text beside a SMILES is read from it.

Tests used:
[1] = molecular target: T1, ATIC homodimer (Gallus gallus, UniProt P31335); test: ATIC RTHS ranking by spotting serial dilutions on selective media; format: cell-based; conditions: cyclic peptides in order of biological activity (1 = most active)
T1 construct: expressed in transfected cells; host or cells: E. coli RTHS strain with the ATIC fusion integrated on the chromosome
T1 sequence (P31335 1-593): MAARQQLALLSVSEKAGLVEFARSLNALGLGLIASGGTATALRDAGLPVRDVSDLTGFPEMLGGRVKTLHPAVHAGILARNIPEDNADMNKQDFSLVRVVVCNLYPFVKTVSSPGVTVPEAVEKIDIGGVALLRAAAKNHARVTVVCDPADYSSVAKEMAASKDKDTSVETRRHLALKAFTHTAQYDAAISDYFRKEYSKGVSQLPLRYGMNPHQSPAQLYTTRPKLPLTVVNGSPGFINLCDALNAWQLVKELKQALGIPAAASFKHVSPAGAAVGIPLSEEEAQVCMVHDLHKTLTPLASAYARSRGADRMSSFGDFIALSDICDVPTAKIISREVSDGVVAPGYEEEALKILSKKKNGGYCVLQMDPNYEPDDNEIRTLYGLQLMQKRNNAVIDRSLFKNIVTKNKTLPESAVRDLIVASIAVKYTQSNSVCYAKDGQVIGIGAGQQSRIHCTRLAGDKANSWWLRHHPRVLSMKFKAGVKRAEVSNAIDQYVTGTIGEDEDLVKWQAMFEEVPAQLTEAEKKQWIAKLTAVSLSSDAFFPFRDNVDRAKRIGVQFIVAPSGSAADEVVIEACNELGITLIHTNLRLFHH
Description: ATIC was cloned as a fusion with the bacteriophage 434 repressor DNA binding domain (into pTHCP16, FIG. 1B) such that expression of the repressor-ATIC fusion placed under control of an isopropyl β-D-thiogalactoside (IPTG) inducible promoter. […] In order to improve selection conditions, a new RTHS strain was constructed by integrating the ATIC fusion onto the chromosome. The level of IPTG giving optimal repression was determined to be 50 μM by β-galactosidase assays.
The first SICLOPPS library transformed into the selection strain encoded a hexapeptide with five random residues and a cysteine nucleophile. Approximately 10^7 transformants were plated onto histidine-free minimal media supplemented with arabinose, (inducer for SICLOPPS) 3-amino-1,2,4-triazole (3-AT, competitive inhibitor of HIS3 product) and kanamycin at a density of 10^6 per plate (100×15 mm). The plates were incubated until colonies were readily visible (approximately one in 10^5). A second library encoding an octapeptide with five random residues and an invariable SGW motif was also tested (not shown). Around 200 colonies were picked and screened for arabinose dependent growth advantage and IPTG dependent inhibition of growth to eliminate false positives. The expected phenotype was further confirmed by isolating and retransforming the selected SICLOPPS plasmids into the selection strain. The 14 remaining cyclic peptides were then ranked for activity by spotting serial dilutions of the corresponding cells onto selective media, allowing the conferred growth advantage to be compared at each dilution level.
SICLOPPS libraries were transformed into E. coli strains containing integrated reporter and repressor constructs. Transformants were washed with minimal media A and plated on minimal media A supplemented with 13 μM L-(+)-arabinose, 2.5 mM 3-amino-1,2,4-triazole, 25 μM kanamycin and 50 μM IPTG. After incubation at 37° C. for 3-4 days, surviving colonies were restreaked onto the same media with and without arabinose. Plasmids from selected strains whose growth depended on the presence of arabinose were retransformed into the original selection strain and checked for phenotype retention. The variable insert regions on SICLOPPS plasmids were PCR-amplified, and their DNA sequence determined.

[2] = molecular target: T2, avian ATIC (AICAR Tfase) (Gallus gallus, UniProt P31335); test: AICAR Tfase progress curve analysis (DynaFit); format: biochemical; parameters: 6× histidine tag (N); made in house; conditions: progress curves
T2 sequence (P31335 1-593): T1 sequence (P31335 1-593)
Description: The inhibitors were assayed under two conditions, limiting the amount of each substrate. In one case 168 nM of ATIC, 100 μM of 10-f-THF and 20 μM of AICAR was used (limiting AICAR), and in the second case 168 nM of ATIC, 40 μM of 10-f-THF and 100 μM of AICAR was used (limiting 10-f-THF). The reactions were monitored as outlined above, for 50 minutes. […] The data was fitted to the standard inhibition models (non-competitive, uncompetitive, mixed and competitive) and a model in which the inhibitor binds a monomer of ATIC preventing dimerization.
The progress curves were fitted to a model in which the inhibitor binds a single protomer of ATIC thereby preventing dimerization, as well as the standard inhibition models (non-competitive, uncompetitive, mixed and competitive) using DynaFit [Kuzmic (1996)].

[3] = molecular target: T3, His6-mR2 (Mus musculus, UniProt P11157); test: Quenching of intrinsic mR2 tryptophan fluorescence; format: binding, murine; conditions: PBS pH 7.0
T3 construct: made in house; host or cells: E. coli BL21(λDE3), pET28a-MR2
T3 sequence (P11157 1-390): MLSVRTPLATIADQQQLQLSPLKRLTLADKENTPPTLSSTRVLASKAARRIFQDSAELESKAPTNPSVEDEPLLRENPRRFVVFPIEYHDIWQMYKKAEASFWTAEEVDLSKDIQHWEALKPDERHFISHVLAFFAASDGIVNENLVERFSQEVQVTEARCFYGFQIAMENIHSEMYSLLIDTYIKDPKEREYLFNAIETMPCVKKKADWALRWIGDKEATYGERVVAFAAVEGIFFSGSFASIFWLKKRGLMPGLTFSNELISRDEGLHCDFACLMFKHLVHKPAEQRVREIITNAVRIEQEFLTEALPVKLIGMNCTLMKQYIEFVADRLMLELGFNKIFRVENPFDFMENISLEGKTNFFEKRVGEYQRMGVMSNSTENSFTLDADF
Description: The equilibrium dissociation constant, KD, for His-tagged mR2·cRR130 complex was measured by the quenching of intrinsic protein fluorescence as a function of ligand concentration using a Flouromax-2 (SA Instruments) spectrofluorometer. His6-mR2 was added to 1× phosphate buffered saline (PBS) buffer at pH 7.0, and enzyme concentrations were kept below the KD being measured and were typically 1 μM. The small subunit mR2 contains six tryptophan residues whose combined fluorescence was monitored at 350 nm with excitation at 295 nm. Fluorescence data were collected as a function of added cRR130. The data was corrected for ligand background fluorescence and were fit to a hyperbolic equation to generate the KD value.

[4] = molecular target: T4, ribonucleotide reductase small subunit (mR2) (Mus musculus, UniProt P11157); test: Immobilized c-RR130 binding/competition ELISA with mR2; parameters: species or system murine; conditions: increasing protein concentrations
T4 construct: made in house; host or cells: E. coli BL21(λDE3), pET28a-MR2
T4 sequence (P11157 1-390): T3 sequence (P11157 1-390)
Description: (§1) FIG. 8B provides the results of an immobilized P8 ELISA.
(§2) Two variations of solid phase binding assays were used for analyzing the binding of peptide inhibitors to ribonucleotide reductase subunits: i) protein competition ELISA where peptides were competing with mR1 for binding to immobilized mR2, ii) binding and competition ELISA with covalently immobilized ligands. In general, the solid phase assays were performed in microtiter plates (MaxiSorp, Nunc) or strip units (Reacti-Bind™ Maleimide Activated Clear Strip Plates, Pierce) involving continuous agitation in Junior Orbit Shaker (Lab-line Instruments) at medium speed during all of the incubation steps. Sample volumes were 100 μL, unless specified otherwise. Following coating, blocking step was conducted by incubating pre-loaded wells with 5% bovine serum albumin in PBS for 1 h at room temperature. Wash procedures between any two successive incubations involved three washes with 200 μL of 0.5% Tween-20 in PBS (PBST), with the second wash involving a 5 min incubation. Detection of His-tagged proteins was performed with Ni·NTA-HRP conjugate (Qiagen) according to the manufacturer instructions.
(§3) Peptides (200 nmol per well) in 10% DMF/50 mM Tris·HCl (pH 7.5) with 1 mM TCEP were reacted for 2 h at room temperature with maleimide-derivatized polystyrene wells. The unreacted sites were blocked by incubating wells with 5 μM cysteine in 50 mM Tris·HCl (pH 7.5) for 30 min. Following washing and blocking steps, the wells were incubated with His-tagged mR1 or mR2 in the presence or absence of inhibitors. The retained protein was detected via Ni·NTA-HRP conjugate.
(§4) To determine the mechanism of action of the four identified sequences an alternative assay format was devised (FIG. 8A), where a peptide with a residual activity in its immobilized form can serve as a specific ligand for receptor capture in both binding and competition ELISA. The success of such an assay relies on both efficient peptide immobilization strategy and sufficient level of affinity, uncompromised by this display strategy. The peptide immobilization becomes feasible through implementation of a cysteine, a nucleophile used in splicing, as a universal chemoselective handle allowing covalent attachment strategy through a suitable electrophile. Chemoselective attachment of such peptides on appropriately derivatized surfaces should both display the small molecules for detection with a suitable protein receptor and allow binding site competition analysis, not unlike in a traditional immunosorbent format.

[5] = molecular target: T5, ribonucleotide reductase large subunit (mR1) (Mus musculus, UniProt P07742); test: Immobilized peptide binding/competition ELISA with mR1; parameters: species or system murine; conditions: peptide immobilized via cysteine on maleimide plates; His6-tagged mR1
T5 construct: made in house; host or cells: E. coli BL21(λDE3) Rosetta, pET28a-MR1
T5 sequence (P07742 1-792): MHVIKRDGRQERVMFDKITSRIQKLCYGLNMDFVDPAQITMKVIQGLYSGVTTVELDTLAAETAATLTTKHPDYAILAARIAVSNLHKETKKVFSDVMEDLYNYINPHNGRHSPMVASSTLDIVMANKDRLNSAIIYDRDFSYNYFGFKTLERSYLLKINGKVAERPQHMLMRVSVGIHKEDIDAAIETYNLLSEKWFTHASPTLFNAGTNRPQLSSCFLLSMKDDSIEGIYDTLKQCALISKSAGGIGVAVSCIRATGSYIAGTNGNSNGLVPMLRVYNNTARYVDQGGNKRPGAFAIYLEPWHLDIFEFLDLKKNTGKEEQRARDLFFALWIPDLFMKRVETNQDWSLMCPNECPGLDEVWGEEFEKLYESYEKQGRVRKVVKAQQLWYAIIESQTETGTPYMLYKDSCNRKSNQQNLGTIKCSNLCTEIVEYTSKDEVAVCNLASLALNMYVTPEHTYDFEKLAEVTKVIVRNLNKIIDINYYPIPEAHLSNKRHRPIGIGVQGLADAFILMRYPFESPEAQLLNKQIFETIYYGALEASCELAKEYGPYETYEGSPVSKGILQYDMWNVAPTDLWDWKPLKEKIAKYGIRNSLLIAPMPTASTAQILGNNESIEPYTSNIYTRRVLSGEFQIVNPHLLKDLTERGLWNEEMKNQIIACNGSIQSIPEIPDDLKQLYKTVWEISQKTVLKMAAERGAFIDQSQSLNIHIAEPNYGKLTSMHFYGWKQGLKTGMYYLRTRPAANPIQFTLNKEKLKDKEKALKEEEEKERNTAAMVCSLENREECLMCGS
Description: as §1, §2, §3, §4

[6] = molecular target: T6, HIV-1 protease (Human immunodeficiency virus type 1 group M subtype B, UniProt P04585, D513N); test: RTHS β-galactosidase assay, HIV-1 protease fusion in strain SNS118; format: cell-based; conditions: peptide co-expressed with HIV-1 protease fusion
T6 construct: HIV-1 protease was PCR amplified from pET-HIV-1; expressed in transfected cells; host or cells: E. coli strain SNS118 (integrated fusion)
Description: FIG. 4 has two graphs (A and B) of β-galactosidase assays showing the effect of linear peptide inhibitors on the oligomeric state of HIV-1 protease and ribonucleotide reductase.
pHIV5. HIV-1 protease was PCR amplified from pET-HIV-1 [Ido et al. (1991) J. Biol. Chem. 266:24359-24366] and cloned into SalI and BamHI sites of pTHCP16. The catalytic aspartate (D25) was mutated to asparagine using 3-primer PCR [Michael (1994) Biotechniques 16:410-412], and a S(G)4S linker was added at the SalI site.
Overlapping oligonucleotides encoding MTVSYEL (methionine plus hexapaptide control inhibitor) (SEQ ID:17) [Schramm et al. (1996) Antiviral Res. 30:155-170] were cloned into EcoRI and SphI sites on arabinose expression plasmid pBAD18.
Towards this goal, both enzyme complexes were probed with known linear peptidic inhibitors. These peptides are a C-terminal hexapeptide (FIG. 4A, pHIV16) for HIV protease that inhibits the essential β-sheet interactions [Schramm al. (1996) Antiviral Res. 30:155-170], and a heptapeptide for ribonucleotide reductase (pTHCP35, FIG. 4B) that competes with binding between subunits mR1 and mR2 [Yang et al. (1990) FEBS Lett. 272:61-64].

- Activity Rank [1]: 1
- Best-fitting inhibition model with respect to 10-f-THF [2]: inhibition of enzyme dimerization
- Best-fitting inhibition model with respect to AICAR [2]: non-competitive inhibition model
Molecule: CC(C)[C@@H]1NC(=O)[C@H](CC(N)=O)NC(=O)[C@H](Cc2ccccc2)NC(=O)[C@H](Cc2ccc(O)cc2)NC(=O)[C@H](CCCNC(=N)N)NC(=O)[C@H](CS)NC1=O [c-1a, R Y F N V C] (cyclo(RYFNVC))

- Kd [3]: 53 µM
- Capture of His6-tagged mR2 by immobilized peptide [4]: selectively captured
- Affinity of immobilized peptide toward mR1 [5]: immune
Molecule: CC(C)[C@@H]1NC(=O)[C@H](CC(N)=O)NC(=O)[C@H](Cc2ccc(O)cc2)NC(=O)[C@H](Cc2ccc(O)cc2)NC(=O)[C@H](CCCNC(=N)N)NC(=O)[C@H](CS)NC1=O [c-RR130] (cyclo(CRYYNV))

- Kd [3]: 133 µM
Molecule: CC(C)[C@@H]1NC(=O)[C@H](Cc2ccc(O)cc2)NC(=O)[C@H](CCCNC(=N)N)NC(=O)[C@H](Cc2c[nH]cn2)NC(=O)[C@H](CS)NC(=O)[C@H](Cc2ccccc2)NC1=O [c-RR133] (cyclo(CHRYVF))

Molecule: MTVSYEL [pHIV16]
- Repression of the lacZ reporter [6]: relieved repression
